Experimental data from ChEMBL document CHEMBL3046081, “Phytotoxic effect, uptake, and transformation of biochanin A in selected weed species” (J Agric Food Chem, 2012).

Tests used:
Leaf [1] = test: Drug recovery in leaf of Secale cereale (rye) at 50 ng/g by LC-MS analysis
Leaf [2] = test: Drug recovery in leaf of Secale cereale (rye) at 5 ng/g by LC-MS analysis

Row | Compound | Drug recovery (Leaf [1]) | Drug recovery (Leaf [2])
1 | O=C(O)/C=C/c1ccc(O)cc1 [COUMARIC ACID] | 81% | 79%
2 | COc1ccc(C2COc3cc(O)cc(O)c3C2=O)cc1 (configuration not stated) [DIHYDROBIOCHANIN A] | 76% | 104%
3 | O=c1c(-c2ccc(O)cc2)coc2cc(O)cc(O)c12 [GENISTEIN] | 65% | 81%
4 | COc1ccc(-c2coc3cc(O)cc(O)c3c2=O)cc1O [PRATENSEIN] |  | 98%
